Target: T1, Siglec-2 (CD22) (Homo sapiens, UniProt P20273)
T1 sequence (P20273 20-847): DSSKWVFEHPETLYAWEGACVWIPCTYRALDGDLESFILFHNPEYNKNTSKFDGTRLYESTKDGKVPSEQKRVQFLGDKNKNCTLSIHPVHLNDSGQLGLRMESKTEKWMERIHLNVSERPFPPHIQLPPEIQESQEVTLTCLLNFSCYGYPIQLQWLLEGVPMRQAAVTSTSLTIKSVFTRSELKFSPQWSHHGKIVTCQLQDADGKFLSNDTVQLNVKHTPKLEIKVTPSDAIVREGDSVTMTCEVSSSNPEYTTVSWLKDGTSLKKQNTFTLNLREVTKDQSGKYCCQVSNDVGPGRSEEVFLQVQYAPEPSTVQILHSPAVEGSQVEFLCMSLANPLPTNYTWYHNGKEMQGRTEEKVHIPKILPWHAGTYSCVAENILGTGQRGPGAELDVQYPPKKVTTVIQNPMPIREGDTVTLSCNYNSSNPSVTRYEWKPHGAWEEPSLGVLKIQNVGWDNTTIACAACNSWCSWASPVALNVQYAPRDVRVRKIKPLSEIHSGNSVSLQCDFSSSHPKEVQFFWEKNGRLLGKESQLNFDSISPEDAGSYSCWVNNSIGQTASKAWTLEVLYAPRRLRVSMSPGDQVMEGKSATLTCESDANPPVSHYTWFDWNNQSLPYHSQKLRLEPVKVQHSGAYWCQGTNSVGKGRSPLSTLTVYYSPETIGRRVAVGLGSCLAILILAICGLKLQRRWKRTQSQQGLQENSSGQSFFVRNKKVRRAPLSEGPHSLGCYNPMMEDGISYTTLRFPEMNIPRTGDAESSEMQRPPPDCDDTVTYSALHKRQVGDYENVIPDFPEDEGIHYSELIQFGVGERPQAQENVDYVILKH
Experiment: new affinity assay: displacement of biotinylated compound 155 from sialidase-treated Daudi cells, FACS with streptavidin-PE
Type: binding
Parameters: endogenous in cells; host or cells: Daudi (human B-cell lymphoma line)
Conditions: Table II; rIP values set relative to compound 38; Daudi cells, displacement of compound 155
Experimental: To determine the affinity of the compound of the formula (I), approximately 5×10^6 to 2×10^8 cells of the human B-cell lymphoma line “Daudi” were incubated with sialidase (A. ureafaciens) at 37° C. for 1 h (final concentration 0.1 unit/ml). […] Batches of 1-2×10^6 cells were transferred to sample vessels, and incubated on ice for 15 min with serial concentrations (10-fold dilutions, 1 mM to 1×10^−7 mM) of the substance under measurement (inhibitor). The reaction volume was 50 μl. Then 50 microliters of compound 155 (4-micromolar) were added, and incubation took place for 20 min Washing with FACS buffer (PBS, 0.1 BSA, 0.01% sodium azide) was followed by incubation with streptavidin-PE in the dark for 15 min, followed by washing and measurement of the bound amount of […] via the streptavidin-PE in the FACS. For the determination of 0% displacement of the compound 155, cells without inhibitor were measured. For the determination of 100% displacement, cells were measured without compound 155 and without inhibitor. For each assay, four substances and one reference were measured. The IC50 values determined in each assay were subsequently converted into values of rIP (relative Inhibitory Potency). […]

SMILES | rIP
CC(=O)N[C@H]1[C@H]([C@H](O)[C@H](O)CNC(=O)c2ccc(Oc3ccccc3)cc2)O[C@@](OCCCSCCNC(=O)c2ccc(C(=O)NCCSCCCO[C@]3(C(=O)[O-])C[C@H](O)[C@@H](NC(C)=O)[C@H]([C@H](O)[C@H](O)CNC(=O)c4ccc(Oc5ccccc5)cc4)O3)cc2)(C(=O)[O-])C[C@@H]1O.[Na+].[Na+] [Compound 63] | 20
CC(=O)N[C@H]1[C@H]([C@H](O)[C@H](O)CNC(=O)c2ccc(-c3ccccc3)cc2)O[C@@](OCCC[S+]([O-])CCNC(=O)c2ccc(C(=O)NCC[S+]([O-])CCCO[C@]3(C(=O)[O-])C[C@H](O)[C@@H](NC(C)=O)[C@H]([C@H](O)[C@H](O)CNC(=O)c4ccc(-c5ccccc5)cc4)O3)cc2)(C(=O)[O-])C[C@@H]1O.[Na+].[Na+] (stereo partly drawn) [Compound 132] | 212
CC(=O)N[C@H]1[C@H]([C@H](O)[C@H](O)CNC(=O)c2cc3ccccc3s2)O[C@@](OCCCSCCNC(=O)c2ccc(C(=O)NCCSCCCO[C@]3(C(=O)[O-])C[C@H](O)[C@@H](NC(C)=O)[C@H]([C@H](O)[C@H](O)CNC(=O)c4cc5ccccc5s4)O3)cc2)(C(=O)[O-])C[C@@H]1O.[Na+].[Na+] [Compound 70] | 137
CC(=O)N[C@H]1[C@H]([C@H](O)[C@H](O)CNC(=O)c2ccc(-c3ccccc3)cc2)O[C@@](OCCCSCCC(=O)NCc2ccc(CNC(=O)CCSCCCO[C@]3(C(=O)[O-])C[C@H](O)[C@@H](NC(C)=O)[C@H]([C@H](O)[C@H](O)CNC(=O)c4ccc(-c5ccccc5)cc4)O3)cc2)(C(=O)[O-])C[C@@H]1O.[Na+].[Na+] [Compound 44] | 177
CC(=O)N[C@H]1[C@H]([C@H](O)[C@H](O)CNC(=O)/C=C/c2ccccc2)O[C@@](OCCCSCCNC(=O)c2ccc(C(=O)NCCSCCCO[C@]3(C(=O)[O-])C[C@H](O)[C@@H](NC(C)=O)[C@H]([C@H](O)[C@H](O)CNC(=O)/C=C/c4ccccc4)O3)cc2)(C(=O)[O-])C[C@@H]1O.[Na+].[Na+] [Compound 83] | 73
CC(=O)N[C@H]1[C@H]([C@H](O)[C@H](O)CNC(=O)c2ccc3c(c2)C(=O)c2ccccc2-3)O[C@@](OCCCSCCNC(=O)c2ccc(C(=O)NCCSCCCO[C@]3(C(=O)[O-])C[C@H](O)[C@@H](NC(C)=O)[C@H]([C@H](O)[C@H](O)CNC(=O)c4ccc5c(c4)C(=O)c4ccccc4-5)O3)cc2)(C(=O)[O-])C[C@@H]1O.[Na+].[Na+] [Compound 78] | 27
CC(=O)N[C@H]1[C@H]([C@H](O)[C@H](O)CNC(=O)c2ccc(-c3ccccc3)cc2)O[C@@](OCCCSCCNC(=O)c2ccc(-c3ccc(C(=O)NCCSCCCO[C@]4(C(=O)[O-])C[C@H](O)[C@@H](NC(C)=O)[C@H]([C@H](O)[C@H](O)CNC(=O)c5ccc(-c6ccccc6)cc5)O4)cc3)cc2)(C(=O)[O-])C[C@@H]1O.[Na+].[Na+] [Compound 24] | 75
CC(=O)N[C@H]1[C@H]([C@H](O)[C@H](O)CNC(=O)c2ccc(-c3c4ccc(=O)cc-4oc4cc(O)ccc34)c(C(=O)[O-])c2)O[C@@](OCCCSCCNC(=O)c2ccc(-c3ccc(C(=O)NCCSCCCO[C@]4(C(=O)[O-])C[C@H](O)[C@@H](NC(C)=O)[C@H]([C@H](O)[C@H](O)CNC(=O)c5ccc(-c6c7ccc(=O)cc-7oc7cc(O)ccc67)c(C(=O)[O-])c5)O4)cc3)cc2)(C(=O)[O-])C[C@@H]1O.[Na+].[Na+].[Na+].[Na+] [Compound 131] | 4
CC(=O)N[C@H]1[C@H]([C@H](O)[C@H](O)CNC(=O)c2ccc(-c3ccccc3)cc2)O[C@@](OCCCSCCC(=O)NCCCCCCNC(=O)CCSCCCO[C@]2(C(=O)[O-])C[C@H](O)[C@@H](NC(C)=O)[C@H]([C@H](O)[C@H](O)CNC(=O)c3ccc(-c4ccccc4)cc3)O2)(C(=O)[O-])C[C@@H]1O.[Na+].[Na+] [Compound 43] | 15
CC(=O)N[C@H]1[C@H]([C@H](O)[C@H](O)CNC(=O)c2ccc(-c3ccccc3)cc2)O[C@@](OCCCSCCNC(=O)c2ccc(C(=O)NCCSCCCO[C@]3(C(=O)[O-])C[C@H](O)[C@@H](NC(C)=O)[C@H]([C@H](O)[C@H](O)CNC(=O)c4ccc(-c5ccccc5)cc4)O3)s2)(C(=O)[O-])C[C@@H]1O.[Na+].[Na+] [Compound 29] | 2061
CC(=O)N[C@H]1[C@H]([C@H](O)[C@H](O)CNC(=O)c2ccc(C3CCCCC3)cc2)O[C@@](OCCCSCCNC(=O)CCCCC(=O)NCCSCCCO[C@]2(C(=O)[O-])C[C@H](O)[C@@H](NC(C)=O)[C@H]([C@H](O)[C@H](O)CNC(=O)c3ccc(C4CCCCC4)cc3)O2)(C(=O)[O-])C[C@@H]1O.[Na+].[Na+] [Compound 58] | 24
CC(=O)N[C@H]1[C@H]([C@H](O)[C@H](O)CNC(=O)c2ccc(-c3ccccc3)cc2)O[C@@](OCCCSCCC(=O)Nc2ccc(NC(=O)CCSCCCO[C@]3(C(=O)[O-])C[C@H](O)[C@@H](NC(C)=O)[C@H]([C@H](O)[C@H](O)CNC(=O)c4ccc(-c5ccccc5)cc4)O3)cc2)(C(=O)[O-])C[C@@H]1O.[Na+].[Na+] [Compound 39] | 10760
CC(=O)N[C@H]1[C@H]([C@H](O)[C@H](O)CNC(=O)c2ccc(-c3ccc(O)cc3)cc2)O[C@@](OCCCSCCNC(=O)c2ccc(C(=O)NCCSCCCO[C@]3(C(=O)[O-])C[C@H](O)[C@@H](NC(C)=O)[C@H]([C@H](O)[C@H](O)CNC(=O)c4ccc(-c5ccc(O)cc5)cc4)O3)cc2)(C(=O)[O-])C[C@@H]1O.[Na+].[Na+] [Compound 67] | 1959
CC(=O)N[C@H]1[C@H]([C@H](O)[C@H](O)CNC(=O)c2ccc(-c3ccccc3Cl)cc2)O[C@@](OCCCSCCNC(=O)c2ccc(C(=O)NCCSCCCO[C@]3(C(=O)[O-])C[C@H](O)[C@@H](NC(C)=O)[C@H]([C@H](O)[C@H](O)CNC(=O)c4ccc(-c5ccccc5Cl)cc4)O3)cc2)(C(=O)[O-])C[C@@H]1O.[Na+].[Na+] [Compound 75] | 3210
CC(=O)N[C@H]1[C@H]([C@H](O)[C@H](O)CNC(=O)c2ccc(-c3ccccc3)cc2)O[C@@](OCc2cn(CCNC(=O)c3ccc(C(=O)NCCn4cc(CO[C@]5(C(=O)[O-])C[C@H](O)[C@@H](NC(C)=O)[C@H]([C@H](O)[C@H](O)CNC(=O)c6ccc(-c7ccccc7)cc6)O5)nn4)cc3)nn2)(C(=O)[O-])C[C@@H]1O.[Na+].[Na+] [Compound 125] | 8
CC(=O)N[C@H]1[C@H]([C@H](O)[C@H](O)CNC(=O)Cc2ccc3ccccc3c2)O[C@@](OCCCSCCNC(=O)c2ccc(C(=O)NCCSCCCO[C@]3(C(=O)[O-])C[C@H](O)[C@@H](NC(C)=O)[C@H]([C@H](O)[C@H](O)CNC(=O)Cc4ccc5ccccc5c4)O3)cc2)(C(=O)[O-])C[C@@H]1O.[Na+].[Na+] [Compound 66] | 197
CC(=O)N[C@H]1[C@H]([C@H](O)[C@H](O)CNCc2ccc(-c3ccccc3)cc2)O[C@@](OCCCSCCNC(=O)c2ccc(C(=O)NCCSCCCO[C@]3(C(=O)[O-])C[C@H](O)[C@@H](NC(C)=O)[C@H]([C@H](O)[C@H](O)CNCc4ccc(-c5ccccc5)cc4)O3)cc2)(C(=O)[O-])C[C@@H]1O.[Na+].[Na+] [Compound 85] | 1
CC(=O)N[C@H]1[C@H]([C@H](O)[C@H](O)CNC(=O)c2ccc(Cl)cc2)O[C@@](OCCCSCCNC(=O)c2ccc(C(=O)NCCSCCCO[C@]3(C(=O)[O-])C[C@H](O)[C@@H](NC(C)=O)[C@H]([C@H](O)[C@H](O)CNC(=O)c4ccc(Cl)cc4)O3)cc2)(C(=O)[O-])C[C@@H]1O.[Na+].[Na+] [Compound 72] | 38

Source: patent US9260467B2, “Sialic acid dimers” (priority 2011, dated 2016)
